Here are results for 30 molecules from patent US7704995B2 (Exelixis, Inc., priority 2003, dated 2010).

The first assay concerns the target T1, Chk1 (Homo sapiens, UniProt O14757).
T1 construct: purchased Upstate Biotechnology
T1 sequence (O14757 1-476): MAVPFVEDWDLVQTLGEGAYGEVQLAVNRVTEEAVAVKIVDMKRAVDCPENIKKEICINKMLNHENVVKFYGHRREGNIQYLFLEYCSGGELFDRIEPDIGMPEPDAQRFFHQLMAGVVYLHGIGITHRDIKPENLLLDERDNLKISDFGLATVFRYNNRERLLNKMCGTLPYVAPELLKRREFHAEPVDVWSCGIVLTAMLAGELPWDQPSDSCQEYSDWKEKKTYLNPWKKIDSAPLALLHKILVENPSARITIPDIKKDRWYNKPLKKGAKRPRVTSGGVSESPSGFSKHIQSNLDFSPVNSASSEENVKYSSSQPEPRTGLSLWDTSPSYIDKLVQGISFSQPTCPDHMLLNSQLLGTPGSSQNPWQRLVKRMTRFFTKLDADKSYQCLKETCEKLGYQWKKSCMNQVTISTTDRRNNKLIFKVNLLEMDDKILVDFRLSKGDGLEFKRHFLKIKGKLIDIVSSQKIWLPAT
Briefly: Chk1 kinase assay: incorporation of γ-33P ATP into immobilized myelin basic protein. It is filed as biochemical. Conditions: Table 11, Chk1 only; class symbols A-D; read-out: Chk1 IC50. The method in brief:
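Plates coated with MBP, then kinase reactions in Hepes pH 7.6 buffer with 10 mM MgCl2 and 1% DMSO were started by adding unlabeled plus γ-33P ATP (10 μM for Chk1 at 10 nM enzyme; 30 μM for Chk2 at 20 nM enzyme). After 1 h at room temperature, plates were washed and counted.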
The term IC50 denotes the midpoint of a concentration-inhibition curve. `COc1cccc(OC)c1CNC(=O)c1cccc(-c2cnc(N)c(C(=O)N[C@H]3CCCNC3)n2)c1` [Example 1026, 3-amino-6-{3-[({[2,6-bis(methyloxy)phenyl]methyl}amino)carbonyl]phenyl}-N-[(3S)-piperidin-3-yl]pyrazine-2-carboxamide]: the 50% inhibitory concentration (IC50) is 0.05 to 1 µM. Turning to `Nc1ncc(-c2cccc(C(=O)NCc3cc(F)cc(F)c3)c2)nc1C(=O)N[C@H]1CCCCNC1` [Example 1009, 3-amino-N-[(3S)-azepan-3-yl]-6-[3-({[(3,5-difluorophenyl)methyl]amino}carbonyl)phenyl]pyrazine-2-carboxamide], the half-maximal inhibitory concentration (IC50) was < 0.05 µM. Consider `Nc1ncc(-c2cccc(CNC(=O)c3ccc(OC(F)(F)F)cc3)c2)nc1C(=O)N[C@H]1CCCNC1` [Example 883, 3-amino-N-[(3S)-piperidin-3-yl]-6-(3-{[({4-[(trifluoromethyl)oxy]phenyl}carbonyl)amino]methyl}phenyl)pyrazine-2-carboxamide], for which the IC50 was < 0.05 µM. On the same count and under the same terms, next, `Nc1ncc(-c2cccc(CNC(=O)c3ccc4ccccc4c3)c2)nc1C(=O)N[C@H]1CCCNC1` [Example 893, 3-amino-6-(3-{[(naphthalen-2-ylcarbonyl)amino]methyl}phenyl)-N-[(3S)-piperidin-3-yl]pyrazine-2-carboxamide]: < 0.05 µM. With `Nc1ncc(-c2cccc(CNC(=O)c3ncccc3O)c2)nc1C(=O)N[C@H]1CCCNC1` [Example 987, 3-amino-6-[3-({[(3-hydroxypyridin-2-yl)carbonyl]amino}methyl)phenyl]-N-[(3S)-piperidin-3-yl]pyrazine-2-carboxamide], the 50% inhibitory concentration (IC50) is < 0.05 µM.

With `Nc1ncc(-c2cccc(NC(=O)Cc3ccc(F)cc3F)c2)nc1C(=O)N[C@H]1CCCNC1` [Example 897, 3-amino-6-(3-{[(2,4-difluorophenyl)acetyl]amino}phenyl)-N-[(3S)-piperidin-3-yl]pyrazine-2-carboxamide], the half-maximal inhibitory concentration (IC50) is < 0.05 µM. Same read-out and setting: the value for `Nc1ncc(-c2cccc(C(=O)NCc3ccccc3Cl)c2)nc1C(=O)N[C@H]1CCCNC1` [Example 881, 3-amino-6-[3-({[(2-chlorophenyl)methyl]amino}carbonyl)phenyl]-N-[(3S)-piperidin-3-yl]pyrazine-2-carboxamide] was < 0.05 µM.

The assay is the same for the next values; noted with them: Table 11; Chk1 only; read-out: Chk1 IC50.
Turning to `CC(C)(C)OC(=O)NCCNC(=O)c1nc(-c2cccc(C(=O)NCc3ccccc3)c2)cnc1N` [Example 615, 1,1-dimethylethyl [2-({[3-amino-6-(3-{[(phenylmethyl)amino]carbonyl}phenyl)pyrazin-2-yl]carbonyl}amino)ethyl]carbamate], the concentration for half-maximal inhibition (IC50) is ≥ 10 µM. Same read-out and setting: the value for `Nc1ncc(-c2cccc(CO)c2)nc1-c1nc(C2CNCCO2)n[nH]1` (stereo not drawn) [Example 703, {3-[5-amino-6-(3-morpholin-2-yl-1H-1,2,4-triazol-5-yl)pyrazin-2-yl]phenyl}methanol] was 0.05 to 1 µM. As for `Cc1nc(-c2nc(-c3cccc(C(=O)N[C@H]4CCc5ccccc54)c3)cnc2N)nn1-c1ccncc1` [Example 793, 3-[5-amino-6-(5-methyl-1-pyridin-4-yl-1H-1,2,4-triazol-3-yl)pyrazin-2-yl]-N-[(1S)-2,3-dihydro-1H-inden-1-yl]benzamide], the concentration for half-maximal inhibition (IC50) lay within 1 to 10 µM. Turning to `CC(C)(C)OC(=O)N1CC[C@H](NC(=O)c2nc(-c3cccc(C(=O)NCc4cccnc4)c3)cnc2N)C1` [Example 758, 1,1-dimethylethyl (3S)-3-({[3-amino-6-(3-{[(pyridin-3-ylmethyl)amino]carbonyl}phenyl)pyrazin-2-yl]carbonyl}amino)pyrrolidine-1-carboxylate], the concentration for half-maximal inhibition (IC50) fell in the range of 1 to 10 µM. Turning to `Cc1nc(-c2nc(-c3cccc(C(=O)N[C@H]4CCc5ccccc54)c3)cnc2N)nn1C` [Example 799, 3-[5-amino-6-(1,5-dimethyl-1H-1,2,4-triazol-3-yl)pyrazin-2-yl]-N-[(1S)-2,3-dihydro-1H-inden-1-yl]benzamide], the concentration for half-maximal inhibition (IC50) is ≥ 10 µM.

For `CNC(=O)c1nc(-c2ccc(F)c(C(=O)N[C@H]3CCc4ccccc43)c2)cnc1N` [Example 772, 3-amino-6-(3-{[(1S)-2,3-dihydro-1H-inden-1-ylamino]carbonyl}-4-fluorophenyl)-N-methylpyrazine-2-carboxamide], the IC50 lay within 0.05 to 1 µM.

On to `Nc1ncc(-c2cccc(C(=O)N[C@@H]3c4ccccc4C[C@@H]3O)c2)nc1C(=O)NC[C@@H]1CCNC1` [Example 780, 3-amino-6-[3-({[(1R,2S)-2-hydroxy-2,3-dihydro-1H-inden-1-yl]amino}carbonyl)phenyl]-N-[(3R)-pyrrolidin-3-ylmethyl]pyrazine-2-carboxamide], for which the concentration for half-maximal inhibition (IC50) is < 0.05 µM. The same measure, in the same setting: the value for `Nc1ncc(-c2cccc(CO)c2)nc1-c1nc(C2CCNC2)n[nH]1` (stereo not drawn) [Example 643, {3-[5-amino-6-(3-pyrrolidin-3-yl-1H-1,2,4-triazol-5-yl)pyrazin-2-yl]phenyl}methanol] was 0.05 to 1 µM. On the same count and under the same terms, next, `Nc1ncc(-c2cccc(C(=O)NCc3ccccc3)c2)nc1C(=O)NCCCNS(=O)(=O)c1cccc2cccnc12` [Example 653, 3-amino-6-(3-{[(phenylmethyl)amino]carbonyl}phenyl)-N-{3-[(quinolin-8-ylsulfonyl)amino]propyl}pyrazine-2-carboxamide]: ≥ 10 µM. On to `CN(C)c1ccc(C(=O)c2nc(-c3cccc(C(=O)NCc4ccccc4)c3)cnc2N)cc1` [Example 589, 3-(5-amino-6-{[4-(dimethylamino)phenyl]carbonyl}pyrazin-2-yl)-N-(phenylmethyl)benzamide], for which the IC50 is ≥ 10 µM. As for `CCn1nc(-c2nc(-c3cccc(C(=O)N[C@H]4CCc5ccccc54)c3)cnc2N)nc1[C@@H]1CCCN(C(=O)OCc2ccccc2)C1` [Example 749, phenylmethyl (3R)-3-{3-[3-amino-6-(3-{[(1S)-2,3-dihydro-1H-inden-1-ylamino]carbonyl}phenyl)pyrazin-2-yl]-1-ethyl-1H-1,2,4-triazol-5-yl}piperidine-1-carboxylate], the 50% inhibitory concentration (IC50) is ≥ 10 µM. The same measure, in the same setting: the value for `N=C(N)N/N=C/c1nc(-c2cccc(C(=O)NCc3ccccc3)c2)cnc1N` [Example 676, 3-[5-amino-6-((E)-{[amino(imino)methyl]hydrazono}methyl)pyrazin-2-yl]-N-(phenylmethyl)benzamide] was ≥ 10 µM; that for `Nc1ncc(-c2cccc(C(=O)NCc3ccccc3)c2)nc1C(=O)c1ccc(Cl)c(F)c1` [Example 587, 3-{5-amino-6-[(4-chloro-3-fluorophenyl)carbonyl]pyrazin-2-yl}-N-(phenylmethyl)benzamide] was ≥ 10 µM.

Still in this assay, the particulars now being: read-out: Chk1 IC50.
For `CNC(=O)c1nc(-c2cccc(-c3noc(CCc4ccccc4)n3)c2)cnc1N` [Example 138, 3-amino-N-methyl-6-{3-[5-(2-phenylethyl)-1,2,4-oxadiazol-3-yl]phenyl}pyrazine-2-carboxamide], the IC50 was in the range of 1 to 10 µM. `CNC(=O)c1nc(-c2cccc(C(=O)NCc3ccc(OC)c(OC)c3)c2)cnc1N` [Example 371, 3-amino-6-{3-[({[3,4-bis(methyloxy)phenyl]methyl}amino)carbonyl]phenyl}-N-methylpyrazine-2-carboxamide]: the IC50 was in the range of 0.05 to 1 µM. Still for that read-out and setting: the value for `Nc1ncc(-c2cccc(C(=O)NCc3ccccc3)c2)nc1C(=O)NC1CC1` [Example 270, 3-amino-N-cyclopropyl-6-(3-{[(phenylmethyl)amino]carbonyl}phenyl)pyrazine-2-carboxamide] was 1 to 10 µM. Take `Nc1ncc(-c2cccc(C(=O)NCc3c(F)cccc3Cl)c2)nc1C(=O)NC1CC1` [Example 271, 3-amino-6-[3-({[(2-chloro-6-fluorophenyl)methyl]amino}carbonyl)phenyl]-N-cyclopropylpyrazine-2-carboxamide]: the concentration for half-maximal inhibition (IC50) was ≥ 10 µM.

As to `CNC(=O)c1nc(-c2cccc(C(=O)NCc3ccccc3N)c2)cnc1N` [Example 231, 3-amino-6-[3-({[(2-aminophenyl)methyl]amino}carbonyl)phenyl]-N-methylpyrazine-2-carboxamide], the IC50 was in the range of 0.05 to 1 µM. Still for that read-out and setting: the value for `CNC(=O)c1nc(-c2cccc(C(=O)NCc3c(F)cccc3F)c2)cnc1N` [Example 338, 3-amino-6-[3-({[(2,6-difluorophenyl)methyl]amino}carbonyl)phenyl]-N-methylpyrazine-2-carboxamide] was 0.05 to 1 µM. `CNC(=O)c1nc(-c2ccc(O)cc2)cnc1N` [Example 236, 3-amino-6-(4-hydroxyphenyl)-N-methylpyrazine-2-carboxamide]: the half-inhibitory concentration (IC50) was in the range of 0.05 to 1 µM.

As for `CNC(=O)c1nc(-c2cccc(NC(=O)Cc3ccc(Cl)cc3)c2)cnc1N` [Example 155, 3-amino-6-(3-{[(4-chlorophenyl)acetyl]amino}phenyl)-N-methylpyrazine-2-carboxamide], the concentration for half-maximal inhibition (IC50) lay within 0.05 to 1 µM. On to `CNC(=O)c1nc(-c2ccc(S(C)(=O)=O)cc2)cnc1N` [Example 87, 3-amino-N-methyl-6-[4-(methylsulfonyl)phenyl]pyrazine-2-carboxamide], for which the IC50 was in the range of 1 to 10 µM. Still for that read-out and setting: the value for `CNC(=O)c1nc(-c2cccc(OC)c2)cnc1N` [Example 60, 3-amino-N-methyl-6-[3-(methyloxy)phenyl]pyrazine-2-carboxamide] was 1 to 10 µM.
